Literature values in US10472401B2, “Peptides and combination of peptides for use in immunotherapy against ovarian cancer and other cancers” (immatics biotechnologies GmbH, priority 2015, dated 2019).

Assays:
UBE2V1 = conditions: cited from earlier work
PLA2G6 = biological target: T1, PLA2G6 (Homo sapiens, UniProt O60733); conditions: cited from earlier work
T1 construct: host or cells: ovarian cancer cells
T1 sequence (O60733 1-806): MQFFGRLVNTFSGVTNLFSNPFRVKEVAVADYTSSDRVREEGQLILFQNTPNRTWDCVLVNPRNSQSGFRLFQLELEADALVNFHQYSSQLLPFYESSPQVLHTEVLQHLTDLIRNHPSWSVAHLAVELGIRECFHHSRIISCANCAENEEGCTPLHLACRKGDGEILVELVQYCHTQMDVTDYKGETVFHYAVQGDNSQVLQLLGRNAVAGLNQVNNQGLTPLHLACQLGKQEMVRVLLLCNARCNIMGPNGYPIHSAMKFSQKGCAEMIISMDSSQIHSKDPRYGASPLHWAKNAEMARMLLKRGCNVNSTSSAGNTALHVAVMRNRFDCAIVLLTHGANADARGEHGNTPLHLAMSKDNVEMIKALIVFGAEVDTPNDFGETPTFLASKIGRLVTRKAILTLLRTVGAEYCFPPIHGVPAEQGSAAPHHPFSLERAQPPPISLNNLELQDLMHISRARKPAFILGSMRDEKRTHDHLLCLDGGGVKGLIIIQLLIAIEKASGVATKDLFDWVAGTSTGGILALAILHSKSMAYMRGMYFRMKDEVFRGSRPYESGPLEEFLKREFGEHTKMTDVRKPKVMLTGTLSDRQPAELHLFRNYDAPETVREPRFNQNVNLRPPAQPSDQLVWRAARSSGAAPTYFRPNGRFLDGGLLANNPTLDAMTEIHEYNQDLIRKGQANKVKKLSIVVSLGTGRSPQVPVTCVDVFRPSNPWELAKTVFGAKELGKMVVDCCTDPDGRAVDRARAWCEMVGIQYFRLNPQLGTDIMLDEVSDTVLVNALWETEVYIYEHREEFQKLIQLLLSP

ATR = ATR (Homo sapiens, UniProt Q13535); conditions: pancreatic cancer cells in vitro, pancreatic tumor xenografts in vivo; cited from earlier work
lung tumorigenesis = conditions: TLE1 transgenic mice; cited from earlier work
human tumor cell lines = conditions: cited from earlier work

Sequence of ATR (Q13535 whole entry): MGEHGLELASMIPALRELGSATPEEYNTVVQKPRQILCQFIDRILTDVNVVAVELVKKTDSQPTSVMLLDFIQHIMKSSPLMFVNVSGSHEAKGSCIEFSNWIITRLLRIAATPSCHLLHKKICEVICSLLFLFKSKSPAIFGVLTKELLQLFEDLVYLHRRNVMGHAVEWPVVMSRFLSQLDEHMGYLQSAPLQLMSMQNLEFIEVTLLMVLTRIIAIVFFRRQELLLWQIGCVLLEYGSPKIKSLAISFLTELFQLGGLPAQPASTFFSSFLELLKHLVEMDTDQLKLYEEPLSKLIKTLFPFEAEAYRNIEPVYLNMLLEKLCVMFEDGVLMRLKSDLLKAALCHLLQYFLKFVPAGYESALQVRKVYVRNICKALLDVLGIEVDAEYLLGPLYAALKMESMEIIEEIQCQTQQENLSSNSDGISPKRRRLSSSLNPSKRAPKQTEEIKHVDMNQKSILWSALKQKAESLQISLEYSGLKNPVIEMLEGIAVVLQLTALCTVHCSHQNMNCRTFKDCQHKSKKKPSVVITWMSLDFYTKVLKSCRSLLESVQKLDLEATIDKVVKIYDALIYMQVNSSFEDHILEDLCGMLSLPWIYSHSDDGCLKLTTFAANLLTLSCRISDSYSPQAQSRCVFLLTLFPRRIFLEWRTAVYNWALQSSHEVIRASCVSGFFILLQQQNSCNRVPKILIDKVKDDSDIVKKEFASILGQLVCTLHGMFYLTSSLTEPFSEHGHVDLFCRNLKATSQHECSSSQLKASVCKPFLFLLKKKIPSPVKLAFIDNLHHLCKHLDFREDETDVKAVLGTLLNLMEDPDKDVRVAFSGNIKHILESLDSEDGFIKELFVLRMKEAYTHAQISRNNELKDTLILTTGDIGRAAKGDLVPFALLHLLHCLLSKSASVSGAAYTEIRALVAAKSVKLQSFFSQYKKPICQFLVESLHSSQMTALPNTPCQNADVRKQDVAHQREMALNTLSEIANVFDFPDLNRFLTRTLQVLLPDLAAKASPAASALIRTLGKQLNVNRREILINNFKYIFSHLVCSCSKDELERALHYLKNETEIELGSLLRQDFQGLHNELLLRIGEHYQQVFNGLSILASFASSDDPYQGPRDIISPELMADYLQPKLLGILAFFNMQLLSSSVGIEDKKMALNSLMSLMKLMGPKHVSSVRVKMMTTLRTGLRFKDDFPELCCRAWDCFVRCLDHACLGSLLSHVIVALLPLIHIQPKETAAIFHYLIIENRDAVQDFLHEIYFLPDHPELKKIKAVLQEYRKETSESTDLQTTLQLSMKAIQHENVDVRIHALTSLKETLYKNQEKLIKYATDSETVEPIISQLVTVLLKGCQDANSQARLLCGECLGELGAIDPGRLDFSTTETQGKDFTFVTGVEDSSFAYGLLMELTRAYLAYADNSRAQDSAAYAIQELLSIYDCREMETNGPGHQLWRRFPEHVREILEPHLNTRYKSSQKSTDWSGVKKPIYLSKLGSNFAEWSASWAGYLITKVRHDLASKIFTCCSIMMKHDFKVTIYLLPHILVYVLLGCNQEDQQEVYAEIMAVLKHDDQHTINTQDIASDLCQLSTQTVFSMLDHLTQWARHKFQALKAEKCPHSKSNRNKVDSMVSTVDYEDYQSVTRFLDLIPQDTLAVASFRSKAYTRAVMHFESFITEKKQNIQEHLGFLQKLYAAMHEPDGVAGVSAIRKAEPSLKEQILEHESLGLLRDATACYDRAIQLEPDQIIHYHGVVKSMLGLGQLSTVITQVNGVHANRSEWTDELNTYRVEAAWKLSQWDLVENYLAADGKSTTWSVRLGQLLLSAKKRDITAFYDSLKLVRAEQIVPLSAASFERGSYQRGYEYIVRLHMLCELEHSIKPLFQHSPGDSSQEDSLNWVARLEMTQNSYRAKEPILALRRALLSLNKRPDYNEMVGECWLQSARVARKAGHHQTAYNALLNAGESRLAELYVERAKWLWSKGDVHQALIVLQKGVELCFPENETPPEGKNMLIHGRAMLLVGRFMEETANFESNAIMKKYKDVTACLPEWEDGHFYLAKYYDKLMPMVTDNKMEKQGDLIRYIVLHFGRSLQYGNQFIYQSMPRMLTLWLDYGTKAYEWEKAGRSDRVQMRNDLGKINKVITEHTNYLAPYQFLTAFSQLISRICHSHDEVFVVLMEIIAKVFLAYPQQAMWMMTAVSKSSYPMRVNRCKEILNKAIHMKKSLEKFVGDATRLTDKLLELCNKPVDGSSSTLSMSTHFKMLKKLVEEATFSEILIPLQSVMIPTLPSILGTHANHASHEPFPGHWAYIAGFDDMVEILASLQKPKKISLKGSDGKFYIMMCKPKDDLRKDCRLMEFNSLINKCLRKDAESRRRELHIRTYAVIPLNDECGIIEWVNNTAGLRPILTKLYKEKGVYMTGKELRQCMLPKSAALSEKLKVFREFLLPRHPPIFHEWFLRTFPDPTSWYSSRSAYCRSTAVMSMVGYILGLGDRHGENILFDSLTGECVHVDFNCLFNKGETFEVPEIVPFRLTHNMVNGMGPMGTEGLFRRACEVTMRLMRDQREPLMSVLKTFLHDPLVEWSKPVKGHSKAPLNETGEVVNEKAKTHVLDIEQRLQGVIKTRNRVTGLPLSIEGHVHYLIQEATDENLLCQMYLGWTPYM
Sequence of ATR (Q8WXE1 whole entry partner): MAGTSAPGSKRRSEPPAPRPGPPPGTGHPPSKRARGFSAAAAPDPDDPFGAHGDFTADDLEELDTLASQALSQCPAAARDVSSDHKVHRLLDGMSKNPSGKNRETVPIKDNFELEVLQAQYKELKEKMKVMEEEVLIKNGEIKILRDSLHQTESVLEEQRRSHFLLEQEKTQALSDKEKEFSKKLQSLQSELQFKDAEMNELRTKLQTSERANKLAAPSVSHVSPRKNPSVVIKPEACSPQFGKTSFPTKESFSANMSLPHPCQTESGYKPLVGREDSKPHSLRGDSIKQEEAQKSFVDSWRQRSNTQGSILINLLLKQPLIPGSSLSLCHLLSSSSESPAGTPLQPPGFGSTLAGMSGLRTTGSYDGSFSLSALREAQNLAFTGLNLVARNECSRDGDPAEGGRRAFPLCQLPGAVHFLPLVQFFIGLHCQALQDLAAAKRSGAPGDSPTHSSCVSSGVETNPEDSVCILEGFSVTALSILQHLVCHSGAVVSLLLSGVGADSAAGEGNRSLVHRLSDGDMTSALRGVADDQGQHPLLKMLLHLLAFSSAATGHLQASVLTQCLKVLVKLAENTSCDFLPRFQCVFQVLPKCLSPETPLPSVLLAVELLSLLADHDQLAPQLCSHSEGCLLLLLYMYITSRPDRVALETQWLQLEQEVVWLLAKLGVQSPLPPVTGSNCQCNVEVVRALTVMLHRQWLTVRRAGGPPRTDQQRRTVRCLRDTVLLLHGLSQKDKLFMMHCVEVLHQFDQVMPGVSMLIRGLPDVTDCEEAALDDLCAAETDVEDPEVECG

Cc1ccc(S(=O)(=O)c2ccc([N+](=O)[O-])o2)cc1 [NSC697923]
proliferation and survival of diffuse large B-cell lymphoma cells (UBE2V1): inhibit proliferation and survival of diffuse large B-cell lymphoma cells

O=C1O/C(=C/Br)CCC1c1cccc2ccccc12 (centres unmarked) [Bromoenol lactone]
apoptosis and cell cycle of ovarian cancer cells (PLA2G6): increase in apoptosis in ovarian cancer cells as well as inducing cell cycle arrest in S- and G2/M-phases

CNCc1ccc(-c2cc(-c3nc(-c4ccc(S(=O)(=O)C(C)C)cc4)cnc3N)on2)cc1 [VE-822]
radiosensitization and chemosensitization (ATR): radiosensitize and chemosensitize pancreatic cancer cells in vitro and pancreatic tumor xenografts in vivo

CC(/C=C/C(=O)NO)=C\[C@@H](C)C(=O)c1ccc(N(C)C)cc1 [trichostatin A]
lung tumorigenesis (lung tumorigenesis): significantly inhibited lung tumorigenesis

CN1CC[C@H](c2c(O)cc(O)c3c(=O)cc(-c4ccccc4Cl)oc23)[C@H](O)C1 [Flavopiridol]
human tumor cell proliferation (human tumor cell lines): inhibition of human tumor cell proliferation
